Reference: US20240425478A1, “CYCLOPENTYLPYRAZOLE CDK2 INHIBITORS” (Genentech, Inc., priority 2021, published 2024)
Like-named read-outs stand apart in the source and are kept apart here.

Assays:
[1] = molecular target: T1, Cyclin Dependent Kinase 1/Cyclin A2 (CDK1-cycA2) (Homo sapiens, UniProt P06493); assay: CDK1-cycA2 TR-FRET (Lance) enzyme assay; assay type: biochemical; settings: for Ki: Table O, enzymatic assay; for FS CDK1/CDK2: fold selectivity, enzymatic Ki ratio
T1 construct: purchased ProQinase 0134-0054-1
T1 sequence (P06493 whole entry): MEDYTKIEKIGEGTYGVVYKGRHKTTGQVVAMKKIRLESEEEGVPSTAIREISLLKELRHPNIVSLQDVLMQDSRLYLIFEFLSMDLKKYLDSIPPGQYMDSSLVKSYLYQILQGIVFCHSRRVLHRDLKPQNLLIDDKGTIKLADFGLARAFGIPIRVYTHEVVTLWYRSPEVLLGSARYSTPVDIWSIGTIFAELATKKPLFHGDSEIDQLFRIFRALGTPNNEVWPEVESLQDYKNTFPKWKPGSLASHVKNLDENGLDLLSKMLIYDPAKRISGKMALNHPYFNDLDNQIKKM
T1 sequence (P20248 whole entry partner): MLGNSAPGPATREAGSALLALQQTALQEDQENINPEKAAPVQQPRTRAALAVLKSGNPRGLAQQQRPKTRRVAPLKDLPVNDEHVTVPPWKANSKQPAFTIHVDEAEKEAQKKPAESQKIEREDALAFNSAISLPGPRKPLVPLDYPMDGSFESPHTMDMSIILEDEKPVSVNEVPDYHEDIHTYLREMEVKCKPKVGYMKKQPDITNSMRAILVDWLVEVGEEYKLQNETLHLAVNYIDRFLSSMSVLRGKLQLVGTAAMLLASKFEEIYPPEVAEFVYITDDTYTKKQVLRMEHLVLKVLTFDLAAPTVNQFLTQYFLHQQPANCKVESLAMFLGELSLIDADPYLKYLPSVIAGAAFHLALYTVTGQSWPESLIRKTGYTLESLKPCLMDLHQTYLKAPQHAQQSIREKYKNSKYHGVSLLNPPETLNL
Summary of the method: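 TR-FRET (Lance) detection of phospho-4E-BP1 with a europium-labelled antibody after EDTA quench (15 mM final); signal taken as acceptor/donor ratio. Enzyme and compound were pre-incubated 30 min in HEPES pH 7.5 buffer with MgCl2, TCEP, BGG and Brij 35. Ki derived by Morrison fit.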

[2] = molecular target: T2, Cyclin Dependent Kinase 2/Cyclin E1 (CDK2-cycE1) (Homo sapiens, UniProt P24941); assay: CDK2-cycE1 TR-FRET (LANCE) enzyme assay; assay type: biochemical; settings: for FS CDK1/CDK2 / FS CDK4/CDK2: fold selectivity; for increased fold-selectivity CDK4/CDK2 over Comparator C: (+) sign after FS CDK4/CDK2;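 for improvement in potency against CDK2 (Ki) over Comparator C: fold lower CDK2 Ki than comparator c (Ki 0.032 µM)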
T2 construct: purchased ProQinase 0050-0055-1
Summary of the method: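 Kinase reaction buffer: 50 mM HEPES pH 7.5, 10 mM MgCl2, 2 mM TCEP, 0.05% BGG, 0.01% Brij 35, with 30 min compound–enzyme pre-incubation.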

[3] = molecular target: T3, Cyclin Dependent Kinase 4/Cyclin D3 (CDK4-cycD3) (Homo sapiens, UniProt P11802); assay: CDK4-cycD3 TR-FRET (LANCE) enzyme assay; assay type: biochemical; settings: for Ki: Table O, enzymatic assay; for FS CDK4/CDK2: fold selectivity, enzymatic Ki ratio
T3 construct: purchased Carna Biosciences 04-105
T3 sequence (P11802 whole entry): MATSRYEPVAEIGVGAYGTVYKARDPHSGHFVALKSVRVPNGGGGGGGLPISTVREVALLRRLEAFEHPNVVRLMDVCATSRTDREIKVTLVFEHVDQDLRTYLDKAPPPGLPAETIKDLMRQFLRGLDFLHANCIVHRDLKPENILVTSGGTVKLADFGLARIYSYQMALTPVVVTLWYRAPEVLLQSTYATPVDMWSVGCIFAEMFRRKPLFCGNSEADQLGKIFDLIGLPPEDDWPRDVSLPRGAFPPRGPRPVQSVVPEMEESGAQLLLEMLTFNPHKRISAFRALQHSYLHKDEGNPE
T3 sequence (P30281 whole entry partner): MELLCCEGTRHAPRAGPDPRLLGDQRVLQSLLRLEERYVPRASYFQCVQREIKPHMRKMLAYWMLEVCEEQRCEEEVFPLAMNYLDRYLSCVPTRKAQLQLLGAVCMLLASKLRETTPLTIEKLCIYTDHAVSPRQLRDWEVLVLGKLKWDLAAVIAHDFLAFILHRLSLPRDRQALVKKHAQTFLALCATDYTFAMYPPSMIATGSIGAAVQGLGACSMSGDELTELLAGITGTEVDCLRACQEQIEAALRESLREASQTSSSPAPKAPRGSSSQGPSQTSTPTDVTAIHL
Summary of the method: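 Compound dose responses pre-incubated 30 min with enzyme mix in 50 mM HEPES pH 7.5, 10 mM MgCl2, 2 mM TCEP, 0.05% BGG, 0.01% Brij 35. Reaction quenched with EDTA (15 mM final); Eu-anti-phospho-4E-BP1 TR-FRET detection, acceptor/donor ratio. Ki derived by Morrison equation.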

[4] = tested on: OVISE (JCRB1043, CCNE1-amplified); assay: OVISE EdU incorporation cell proliferation assay (CDK2-dependent); assay type: cell-based; settings: for IC50: cellular assay, read-out: CDK2 OVISE IC50; for FS SKOV-3/OVISE / FS p-H3/OVISE: fold selectivity; for FS p-H3/OVISE: cellular p-H3 IC50 over OVISE IC50; for CDK2 OVISE IC50 fold change in potency versus Comparator D: Table R; for CDK2 OVISE IC50 fold change in potency versus Comparator D / CDK2 OVISE IC50 fold change in potency versus Comparator E / improvement in CDK2 OVISE cell potency over Comparator C: in brackets after OVISE IC50; for CDK2 OVISE IC50 fold change in potency versus Comparator E: Table S; for increased fold-selectivity SKOV-3/OVISE over Comparator C: (+) sign after FS SKOV-3/OVISE; for improvement in CDK2 OVISE cell potency over Comparator C: Comparator C 5.5 μM
Summary of the method: (§1)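 EdU incorporation (0.5 μM final, last 8 h) follows a 16 h compound exposure at 37 °C, 5% CO2 in RPMI plus 10% FBS, 0.5% DMSO. After fixation, imaging scores EdU-positive cells; a 4-parameter logistic fit of that fraction gives IC50.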

SKOV-3 (ATCC HTB-77) = assay: SKOV-3 EdU incorporation cell proliferation assay (CDK4/6-dependent); assay type: cell-based; settings: for IC50: Homo sapiens, cellular assay, read-out: CDK4/6 SKOV-3 IC50; for selectivity for CDK2 over CDK4 compared with Comparator E: SKOV-3/OVISE fold-selectivity cellular assay data; for FS SKOV-3/OVISE: fold selectivity, cellular IC50 ratio
Summary of the method: as §1

HCT116 cells = assay: p-H3 HCT-116 mitotic release cell proliferation assay (cellular CDK1); assay type: cell-based; settings: Homo sapiens, HCT-116; Table O, cellular assay; read-out: CDK1 p-H3 IC50
Method: Inhibition of cellular CDK1 determined by release of cells from nocodazole-induced mitotic arrest, as measured by decrease in phospho-Histone H3. Histone H3 (Ser 10) level is detected in cell lysates by producing a Fluorescence Resonance Energy Transfer (FRET) signal between two antibodies, Phospho-Histone H3 Cryptate (acting as the donor) and Phospho-Histone H3 d2 (acting as the acceptor).
Plates are allowed to rest overnight at 37° C./5% CO2. The following morning, nocodazole is diluted in complete medium, and 5 μL is added to each test well and positive control well for a final concentration of 500 nM. Plates are then incubated for 16 hours at 37° C./5% CO2. […] 10 μL of diluted compound is then transferred to the cell plate (final DMSO concentration 0.1%). Cell plates are then incubated for 4 hours in 37° C. 5% CO2. A cell lysis buffer is prepared on ice using reagents from the Phospho-Histone H3 (Ser10) cellular kit (Cisbio-64HH3PEG). Supernatant is discarded from the cell plate and 80 μL of the supplemented cell lysis buffer (1:99 dilution of the Blocking Reagent and the 1× cell lysis buffer provided in the kit) is added to each of the experimental wells. The cell lysis reaction is allowed to proceed at room temperature while shaking vigorously for 30 minutes. The 384-well HTRF (Homogeneous Time Resolved Fluorescence) plate is prepared by adding 2 μL of each diluted antibody (Phospho-Histone H3 Cryptate antibody and Phospho-Histone H3 d2 antibody diluted 19:1 in a detection buffer) and 12 μL of the supplemented cell lysis buffer to each well in the HTRF plate. 4 μL of the cell lysate is added to the prepared HTRF plate which is then sealed and the reaction is allowed to proceed for a minimum of 2 hours at room temperature.

[5] = Table O, enzymatic assay, read-out: CDK2 Ki
[6] = Table O, enzymatic CDK1 Ki over CDK2 Ki
[7] = Table O, enzymatic CDK4 Ki over CDK2 Ki
[8] = Table R, enzymatic assay, read-out: CDK2 Ki
[9] = Table R, in brackets after CDK2 Ki
[10] = Table S, enzymatic assay, read-out: CDK2 Ki
[11] = Table S, in brackets after CDK2 Ki
[12] = Table O, cellular SKOV-3 IC50 over OVISE IC50
[13] = Table Q, enzymatic assay, read-out: CDK2 Ki

SMILES	Ki [1]	FS CDK1/CDK2 increased over Comparator D, (+) sign ([1]; Table R)	FS CDK1/CDK2 ([1]; Table R)	FS CDK1/CDK2 ([1]; Table S)	Ki [2, 5]	FS CDK1/CDK2 [2, 6]	FS CDK4/CDK2 [2, 7]	Ki [2, 8]	CDK2 Ki fold change in potency versus Comparator D [2, 9]	Ki [2, 10]	CDK2 Ki fold change in potency versus Comparator E [2, 11]	Ki [3]	FS CDK4/CDK2 increased over Comparator D, (+) sign ([3]; Table R)	FS CDK4/CDK2 ([3]; Table R)	FS CDK4/CDK2 ([3]; Table S)	IC50 ([4]; Table O)	FS SKOV-3/OVISE [4, 12]	FS p-H3/OVISE ([4]; Table O)	IC50 (SKOV-3 (ATCC HTB-77); SK-OV-3, Table O)	IC50 (HCT116 cells)	also measured
Cn1cc(Nc2cc([C@H]3CC[C@@H](OC(=O)NC(C)(C)C)C3)[nH]n2)ccc1=O [Example 1, (1R,3S)-3-(3-((1-methyl-6-oxo-1,6-dihydropyridin-3-yl)amino)-1H-pyrazol-5-yl)cyclopentyl tert-butylcarbamate]	270 nM	(+)	36	36	7.6 nM	36	92	7.6 nM	0.4 fold	7.6 nM	0.1 fold	700 nM	(+)	92	92	220 nM	>91	0.45	> 20000 nM	100 nM	FS CDK4/CDK2 increased over Comparator E, (+) sign ([3]; Table S): (+); CDK2 OVISE IC50 fold change in potency versus Comparator D [4]: 17 fold; CDK2 OVISE IC50 fold change in potency versus Comparator E [4]: 0.8 fold; IC50 (SKOV-3 (ATCC HTB-77); SK-OV-3, Table R): > 20000 nM; IC50 (SKOV-3 (ATCC HTB-77); SK-OV-3, Table S): > 20000 nM; selectivity for CDK2 over CDK4 compared with Comparator E (SKOV-3 (ATCC HTB-77)): increase in selectivity for CDK2 over CDK4; FS SKOV-3/OVISE increased over Comparator D, (+) sign (SKOV-3 (ATCC HTB-77); Table R): (+); FS SKOV-3/OVISE (SKOV-3 (ATCC HTB-77); Table R): > 91; FS SKOV-3/OVISE increased over Comparator E, (+) sign (SKOV-3 (ATCC HTB-77); Table S): (+); FS SKOV-3/OVISE (SKOV-3 (ATCC HTB-77); Table S): > 91
CC(C)NC(=O)O[C@@H]1CC[C@H](c2cc(Nc3ccc(=O)n(C)n3)n[nH]2)C1 [Example 2, (1R,3S)-3-(3-((1-methyl-6-oxo-1,6-dihydropyridazin-3-yl)amino)-1H-pyrazol-5-yl)cyclopentyl isopropylcarbamate]	16 nM				0.44 nM	36	550					240 nM				93 nM	120	1.9	11000 nM	190 nM	increased fold-selectivity CDK4/CDK2 over Comparator C ([2]; Table Q): (+) (The (+) sign in Table Q signifies desirable increased fold-selectivity of the exemplary compounds over Comparator C); Ki [2, 13]: 0.44 nM; FS CDK1/CDK2 ([2]; Table Q, enzymatic): 36; FS CDK4/CDK2 ([2]; Table Q, enzymatic): 550; improvement in potency against CDK2 (Ki) over Comparator C ([2]; Table Q, in brackets after CDK2 Ki, Comparator C 0.032 μM): 73 fold; Ki ([2]; read-out: CDK2 activity / potency (enzymatic assay)): ≤ 1 nM; increased fold-selectivity SKOV-3/OVISE over Comparator C ([4]; Table Q): (+) (The (+) sign in Table Q signifies desirable increased fold-selectivity of the exemplary compounds over Comparator C); FS SKOV-3/OVISE ([4]; Table Q, cellular): 120; improvement in CDK2 OVISE cell potency over Comparator C ([4]; Table Q): 59 fold; IC50 (SKOV-3 (ATCC HTB-77); SK-OV-3, Table Q): 11000 nM
CC(C)NC(=O)O[C@@H]1CC[C@H](c2cc(Nc3cccnc3)n[nH]2)C1 [Example 2A, (1R,3S)-3-(3-(pyridin-3-ylamino)-1H-pyrazol-5-yl)cyclopentyl isopropylcarbamate]	71 nM	(+)	42	42	1.7 nM	42	44	1.7 nM	1.6 fold	1.7 nM	0.3 fold	75 nM	(+)	44	44	110 nM	20	0.66	2200 nM	94 nM	improvement in potency against CDK2 (Ki) over Comparator C [2]: 19 fold; increased fold-selectivity CDK1/CDK2 over Comparator C ([2]; Table Q, (+) sign after FS CDK1/CDK2): (+) (The (+) sign in Table Q signifies desirable increased fold-selectivity of the exemplary compounds over Comparator C); increased fold-selectivity CDK4/CDK2 over Comparator C ([2]; Table Q): (+) (The (+) sign in Table Q signifies desirable increased fold-selectivity of the exemplary compounds over Comparator C); Ki [2, 13]: 1.7 nM; FS CDK1/CDK2 ([2]; Table Q, enzymatic): 42; FS CDK4/CDK2 ([2]; Table Q, enzymatic): 44; CDK2 cell potency compared with Comparator E ([4]; CDK2 OVISE cellular assay data): more potent CDK2 cell inhibitors compared to Comparator E; increased fold-selectivity SKOV-3/OVISE over Comparator C ([4]; Table Q): (+) (The (+) sign in Table Q signifies desirable increased fold-selectivity of the exemplary compounds over Comparator C); FS SKOV-3/OVISE ([4]; Table Q, cellular): 20; improvement in CDK2 OVISE cell potency over Comparator C ([4]; Table Q): 50 fold; CDK2 OVISE IC50 fold change in potency versus Comparator D [4]: 35 fold; CDK2 OVISE IC50 fold change in potency versus Comparator E [4]: 1.5 fold; IC50 (SKOV-3 (ATCC HTB-77); SK-OV-3, Table Q): 2200 nM; IC50 (SKOV-3 (ATCC HTB-77); SK-OV-3, Table R): 2200 nM; IC50 (SKOV-3 (ATCC HTB-77); SK-OV-3, Table S): 2200 nM; selectivity for CDK2 over CDK4 compared with Comparator E (SKOV-3 (ATCC HTB-77)): increase in selectivity for CDK2 over CDK4; FS SKOV-3/OVISE increased over Comparator D, (+) sign (SKOV-3 (ATCC HTB-77); Table R): (+); FS SKOV-3/OVISE (SKOV-3 (ATCC HTB-77); Table R): 20; FS SKOV-3/OVISE increased over Comparator E, (+) sign (SKOV-3 (ATCC HTB-77); Table S): (+); FS SKOV-3/OVISE (SKOV-3 (ATCC HTB-77); Table S): 20
